Source: patent publication US20100021541A1, “Microparticulate form of a Tetrahydropyridine derivative” (SANOFI-AVENTIS, priority 1996, published 2010)

Legend:
[1] = Preclinical trials: animal pharmacology, toxicology and pharmacokinetic studies; parameters: species or system animals; settings: in vivo
[2] = Clinical trials on healthy volunteers evaluating the effect of food on oral absorption; type: in vivo; settings: for required dose relative to the product of Example 5 to obtain the same absorption: absorption = area under the curve of plasma SR 57746 concentrations; for absorption with a meal versus on an empty stomach: oral, area under the curve of plasma SR 57746 concentrations
Excerpt: The results obtained in vitro were confirmed in vivo by comparing the observations made in two clinical trials on healthy volunteers, the first trial evaluating the effect of food on the oral absorption of the SR 57746 A obtained according to EP 0 101 381, and the second trial evaluating the effect of food on the oral absorption of the SR 57746 A of Example 5 below. In both the trials, the criterion for evaluation of the absorption was the area under the curve of the plasma SR 57746 concentrations as a function of time.

[3] = system: amyotrophic lateral sclerosis; settings: 2 mg/day; cited from earlier work
[4] = Phase I clinical trials on healthy volunteers, oral administration; type: in vivo; settings: administered orally
Excerpt: EP 0 101 381 describes SR 57746 in the form of the hydrochloride, hereafter called SR 57746 A, and this salt was used in preclinical and clinical trials on healthy volunteers (Phase I). According to said document, SR 57746 is isolated by crystallization from ethanol, especially absolute ethanol.

CACO-2 monolayer = CACO-2 monolayer model, in vitro absorption (dissolution and permeability); type: in vitro ADME; settings: Hanks' solution supplemented with 10% of fetal calf serum and taurocholic acid
Protocol: A study concerning the determination of the in vitro absorption of the microparticles according to the present invention was carried out using the CACO-2 monolayer model.

FC(F)(F)c1cccc(C2=CCN(CCc3ccc4ccccc4c3)CC2)c1 [SR 57746, 1-[2-(2-Naphthyl)ethyl]-4-(3-trifluoromethylphenyl)-1,2,3,6-tetrahydropyridine]
activity and behavior in animal pharmacology and toxicology tests [1]: constant activity and behavior
pharmacokinetic studies on animals [1]: constant and reproducible results

Cl.FC(F)(F)c1cccc(C2=CCN(CCc3ccc4ccccc4c3)CC2)c1 [1-[2-(2-naphthyl)ethyl]-4-(3-trifluoromethylphenyl)-1,2,3,6-tetrahydropyridine hydrochloride]
required dose relative to the product of Example 5 to obtain the same absorption ([2]; administered on an empty stomach): about nine times greater
required dose relative to the product of Example 5 to obtain the same absorption ([2]; administered with a meal): three to four times greater
absorption with a meal versus on an empty stomach ([2]; hydrochloride): two to three times greater

Cl.FC(F)(F)c1cccc(C2=CCN(CCc3ccc4ccccc4c3)CC2)c1 [SR 57746 A, 1-[2-(2-naphthyl)ethyl]-4-(3-trifluoromethylphenyl)-1,2,3,6-tetrahydropyridine hydrochloride]
clinical outcome in amyotrophic lateral sclerosis [3]: proved promising
variability in the plasma concentrations and the pharmacodynamic effects [4]: high variability

Cl.FC(F)(F)c1cccc(C2=CCN(CCc3ccc4ccccc4c3)CC2)c1 [Example 5]
dissolution and permeability (CACO-2 monolayer): rendered uniform
absorption with a meal versus on an empty stomach [2]: the absorption is the same
